According to patent publication US11149018B2, “Substituted N-arylethyl-2-aminoquinoline-4-carboxamides and use thereof” (Bayer Aktiengesellschaft, priority 2017, dated 2021):

Biological target: FP receptor (Homo sapiens (Human), UniProt P43088)
Experiment: In vitro test of inhibition of human FP receptor activity (PGF2α-induced calcium flux in FP-expressing CHEM1 cells)
Format: cell-based
Conditions: PGF2α 2 nM, some mean values of multiple determinations
Summary of the method: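 FP antagonism in FP-expressing CHEM1 cells loaded with Fluo-8. Compound preincubated 10 min at 37° C, then receptor stimulated with 2 nM (final) PGF2α in calcium-free Tyrode with 2 mM CaCl2.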

Sequence of FP receptor (P43088 whole entry): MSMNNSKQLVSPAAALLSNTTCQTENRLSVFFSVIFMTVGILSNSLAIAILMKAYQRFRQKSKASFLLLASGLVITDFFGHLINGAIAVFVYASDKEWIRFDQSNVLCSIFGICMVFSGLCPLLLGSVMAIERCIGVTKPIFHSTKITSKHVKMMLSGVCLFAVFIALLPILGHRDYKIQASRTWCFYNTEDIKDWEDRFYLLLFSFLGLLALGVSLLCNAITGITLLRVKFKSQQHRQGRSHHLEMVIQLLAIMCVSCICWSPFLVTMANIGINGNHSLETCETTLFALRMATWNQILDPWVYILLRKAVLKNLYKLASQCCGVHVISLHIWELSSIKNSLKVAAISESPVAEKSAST

| IC50 [nM] | Compound |
| --- | --- |
| 11 | [2H]C1([2H])N(c2nc3ccc(Br)cc3c(C(=O)NCC(CCC(=O)O)c3ccccc3OC(F)(F)F)c2C)C([2H])([2H])C([2H])([2H])C1([2H])[2H] (single isomer, unassigned; (+)) [Example 279, (+)-5-[({6-Bromo-3-methyl-2-[(^2H8)pyrrolidin-1-yl]quinolin-4-yl}carbonyl)amino]-4-[2-(trifluoromethyl)phenyl]pentanoic acid] |
| 80 | [2H]C1([2H])N(c2nc3ccc(Br)cc3c(C(=O)NCC(CCC(=O)O)c3c(F)ccc(F)c3Cl)c2C)C([2H])([2H])C([2H])([2H])C1([2H])[2H] (single isomer, unassigned; (+)) [Example 281, (+)-5-[({6-Bromo-3-methyl-2-[(^2H8)pyrrolidin-1-yl]quinolin-4-yl}carbonyl)amino]-4-(2-chloro-3,6-difluorophenyl)pentanoic acid] |
| 2.4 | COc1ccccc1C(CCC(=O)O)CNC(=O)c1c(C)c(N2CCCC(F)(F)C2)nc2ccc(Br)cc12 (single isomer, unassigned; (+)) [Example 289, (+)-5-({[6-Bromo-2-(3,3-difluoropiperidin-1-yl)-3-methylquinolin-4-yl]carbonyl}amino)-4-(2-methoxyphenyl)pentanoic acid] |
| 23 | Cc1c(N2CCCCC2)nc2ccc(Br)cc2c1C(=O)NCC(CC(=O)O)c1c(F)cccc1Cl (single isomer, unassigned; (-)) [Example 2, (−)-4-({[6-Bromo-3-methyl-2-(piperidin-1-yl)quinolin-4-yl]carbonyl}amino)-3-(2-chloro-6-fluorophenyl)butanoic acid] |
| 7.8 | Cc1c(N2CCCCC2)nc2ccc(Br)cc2c1C(=O)NCC(CCC(=O)O)c1cc(F)ccc1Cl (single isomer, unassigned; (-)) [Example 6, (−)-5-({[6-Bromo-3-methyl-2-(piperidin-1-yl)quinolin-4-yl]carbonyl}amino)-4-(2-chloro-5-fluorophenyl)pentanoic acid] |
| 14 | Cc1c(N2CCSCC2)nc2ccc(Br)cc2c1C(=O)NCC(CCC(=O)O)c1ccccc1Cl (single isomer, unassigned; (-)) [Example 27, (−)-5-({[6-Bromo-3-methyl-2-(thiomorpholin-4-yl)quinolin-4-yl]carbonyl}amino)-4-(2-chlorophenyl)pentanoic acid] |
| 24 | Cc1c(N2CCCO2)nc2ccc(Br)cc2c1C(=O)NCC(CCC(=O)O)c1ccccc1Cl (single isomer, unassigned; (-)) [Example 39, (−)-5-({[6-Bromo-3-methyl-2-(1,2-oxazolidin-2-yl)quinolin-4-yl]carbonyl}amino)-4-(2-chlorophenyl)pentanoic acid] |
| 90 | Cc1c(N2CCCC(C)(C)C2)nc2ccc(Br)cc2c1C(=O)NCC(CCC(=O)O)c1ccccc1Cl (single isomer, unassigned; (-)) [Example 43, (−)-5-({[6-Bromo-2-(3,3-dimethylpiperidin-1-yl)-3-methylquinolin-4-yl]carbonyl}amino)-4-(2-chlorophenyl)pentanoic acid] |
| 1.3 | Cc1c(N2CCCC(C)C2)nc2ccc(Br)cc2c1C(=O)NCC(CCC(=O)O)c1ccccc1Cl (single isomer, unassigned; (-)) [Example 46, (−)-5-[({6-Bromo-3-methyl-2-[3-methylpiperidin-1-yl]quinolin-4-yl}carbonyl)amino]-4-(2-chlorophenyl)pentanoic acid] |
| 14 | Cc1c(N2CCCC(C)C2)nc2ccc(Br)cc2c1C(=O)NCC(CCC(=O)O)c1ccccc1Cl (single isomer, unassigned; (-)) [Example 49, (−)-5-[({6-Bromo-3-methyl-2-[3-methylpiperidin-1-yl]quinolin-4-yl}carbonyl)amino]-4-(2-chlorophenyl)pentanoic acid] |
| 13 | Cc1c(N2CCCC(F)(F)C2)nc2ccc(Br)cc2c1C(=O)NCC(CCC(=O)O)c1ccccc1Cl (single isomer, unassigned; (-)) [Example 51, (−)-5-({[6-Bromo-2-(3,3-difluoropiperidin-1-yl)-3-methylquinolin-4-yl]carbonyl}amino)-4-(2-chlorophenyl)pentanoic acid] |
| 98 | Cc1c(N2CCC[C@@H]2C)nc2ccc(Br)cc2c1C(=O)NCC(CCC(=O)O)c1ccccc1Cl (single isomer, unassigned; (-)) [Example 80] |
| 180 | Cc1c(N2CCC[C@@H]2C)nc2ccc(Br)cc2c1C(=O)NCC(CCC(=O)O)c1ccccc1Cl (single isomer, unassigned; (-)) [Example 81] |
| 3 | Cc1c(N2CCCCC2)nc2ccc(Br)cc2c1C(=O)NCC(CCC(=O)O)c1ccccc1C(F)(F)F (single isomer, unassigned; (-)) [Example 112, (−)-5-({[6-Bromo-3-methyl-2-(piperidin-1-yl)quinolin-4-yl]carbonyl}amino)-4-[2-(trifluoromethyl)phenyl]pentanoic acid] |
| 4.6 | Cc1c(N2CCCC2)nc2ccc(Br)cc2c1C(=O)NCC(CCC(=O)O)c1ccccc1C(F)(F)F (single isomer, unassigned; (-)) [Example 116, (−)-5-({[6-Bromo-3-methyl-2-(pyrrolidin-1-yl)quinolin-4-yl]carbonyl}amino)-4-[2-(trifluoromethyl)phenyl]pentanoic acid] |
| 8.5 | Cc1c(N2CCCC(F)(F)C2)nc2ccc(Br)cc2c1C(=O)NCC(CCC(=O)O)c1ccccc1C(F)(F)F (single isomer, unassigned; (-)) [Example 118, (−)-5-({[6-Bromo-2-(3,3-difluoropiperidin-1-yl)-3-methylquinolin-4-yl]carbonyl}amino)-4-[2-(trifluoromethyl)phenyl]pentanoic acid] |
| 4.1 | Cc1c(N2CCCCCC2)nc2ccc(Br)cc2c1C(=O)NCC(CCC(=O)O)c1ccccc1C(F)(F)F (single isomer, unassigned; (-)) [Example 121, (−)-5-({[2-(Azepan-1-yl)-6-bromo-3-methylquinolin-4-yl]carbonyl}amino)-4-[2-(trifluoromethyl)phenyl]pentanoic acid] |
| 0.79 | Cc1c(N2CCCCC2)nc2ccc(Br)cc2c1C(=O)NCC(CCC(=O)O)c1ccccc1OC(F)(F)F (single isomer, unassigned; (-)) [Example 127, (−)-5-({[6-Bromo-3-methyl-2-(piperidin-1-yl)quinolin-4-yl]carbonyl}amino)-4-[2-(trifluoromethoxy)phenyl]pentanoic acid] |
| 2.6 | Cc1c(N2CCCC2)nc2ccc(Br)cc2c1C(=O)NCC(CCC(=O)O)c1ccccc1OC(F)(F)F (single isomer, unassigned; (-)) [Example 130, (−)-5-({[6-Bromo-3-methyl-2-(pyrrolidin-1-yl)quinolin-4-yl]carbonyl}amino)-4-[2-(trifluoromethoxy)phenyl]pentanoic acid] |
| 2 | Cc1c(N2CCCC(F)(F)C2)nc2ccc(Br)cc2c1C(=O)NCC(CCC(=O)O)c1ccccc1OC(F)(F)F (single isomer, unassigned; (-)) [Example 133, (−)-5-({[6-Bromo-2-(3,3-difluoropiperidin-1-yl)-3-methylquinolin-4-yl]carbonyl}amino)-4-[2-(trifluoromethoxy)phenyl]pentanoic acid] |
| 1.1 | Cc1c(N2CCCCCC2)nc2ccc(Br)cc2c1C(=O)NCC(CCC(=O)O)c1ccccc1OC(F)(F)F (single isomer, unassigned; (-)) [Example 136, (−)-5-({[2-(Azepan-1-yl)-6-bromo-3-methylquinolin-4-yl]carbonyl}amino)-4-[2-(trifluoromethoxy)phenyl]pentanoic acid] |
| 4.3 | Cc1c(N2CCCCC2)nc2ccc(Br)cc2c1C(=O)NCC(CCC(=O)O)c1cccc(F)c1Cl (single isomer, unassigned; (-)) [Example 142, (−)-5-({[6-Bromo-3-methyl-2-(piperidin-1-yl)quinolin-4-yl]carbonyl}amino)-4-(2-chloro-3-fluorophenyl)pentanoic acid] |
| 1.5 | Cc1c(N2CCCCC2)nc2ccc(Br)cc2c1C(=O)NCC(CCC(=O)O)c1c(Cl)ccc(F)c1F (single isomer, unassigned; (-)) [Example 145, (−)-5-({[6-Bromo-3-methyl-2-(piperidin-1-yl)quinolin-4-yl]carbonyl}amino)-4-(6-chloro-2,3-difluorophenyl)pentanoic acid] |
| 4.5 | Cc1ccc(F)cc1C(CCC(=O)O)CNC(=O)c1c(C)c(N2CCCCC2)nc2ccc(Br)cc12 (single isomer, unassigned; (-)) [Example 148, (−)-5-({[6-Bromo-3-methyl-2-(piperidin-1-yl)quinolin-4-yl]carbonyl}amino)-4-(5-fluoro-2-methylphenyl)pentanoic acid] |
| 1.4 | Cc1c(N2CCCCC2)nc2ccc(Br)cc2c1C(=O)NCC(CCC(=O)O)c1c(F)cccc1C(F)(F)F (single isomer, unassigned; (-)) [Example 161, (−)-5-({[6-Bromo-3-methyl-2-(piperidin-1-yl)quinolin-4-yl]carbonyl}amino)-4-[2-fluoro-6-(trifluoromethyl)phenyl]pentanoic acid] |
| 2.9 | Cc1c(N2CCCC2)nc2ccc(Br)cc2c1C(=O)NCC(CCC(=O)O)c1c(F)cccc1C(F)(F)F (single isomer, unassigned; (-)) [Example 165, (−)-5-({[6-Bromo-3-methyl-2-(pyrrolidin-1-yl)quinolin-4-yl]carbonyl}amino)-4-[2-fluoro-6-(trifluoromethyl)phenyl]pentanoic acid] |

| Compound | IC50 [nM] |
| --- | --- |
| CCC1CCCN(c2nc3ccc(Br)cc3c(C(=O)NCC(CCC(=O)O)c3ccccc3Cl)c2C)C1 (single isomer, unassigned; (-)) [Example 59, (−)-5-[({6-Bromo-2-[3-ethylpiperidin-1-yl]-3-methylquinolin-4-yl}carbonyl)amino]-4-(2-chlorophenyl)pentanoic acid] | 11 |
| CCC1CCCN(c2nc3ccc(Br)cc3c(C(=O)NCC(CCC(=O)O)c3ccccc3Cl)c2C)C1 (single isomer, unassigned; (-)) [Example 60, (−)-5-[({6-Bromo-2-[3-ethylpiperidin-1-yl]-3-methylquinolin-4-yl}carbonyl)amino]-4-(2-chlorophenyl)pentanoic acid] | 7.5 |
